Results reported in ChEMBL document CHEMBL3885881, “DrugMatrix”.

Species: Rattus norvegicus
Experiment: DrugMatrix - Regimen: Daily Repeat
Assay type: toxicity, organism-based, Sprague-Dawley
Set-up: regimen Daily Repeat, gender Male, age 6-8 weeks
Details: in vivo, po, route oral GAVAGE, […]; for ABSOLUTE BASOPHIL / ABSOLUTE EOSINOPHIL / ABSOLUTE LYMPHOCYTE / ABSOLUTE MONOCYTE / ABSOLUTE SEGMENTED NEUTROPHIL / BASOPHIL / EOSINOPHIL / ERYTHROCYTE COUNT / HEMATOCRIT / HEMOGLOBIN / LEUKOCYTE COUNT / LYMPHOCYTE / MEAN CORPUSCULAR HEMOGLOBIN / MEAN CORPUSCULAR HEMOGLOBIN CONCENTRATION / MEAN CORPUSCULAR VOLUME / MONOCYTE / NEUTROPHIL / NUCLEATED RED BLOOD CELLS / PLATELET COUNT: tissue Blood; for ALANINE AMINOTRANSFERASE / ALBUMIN / ALKALINE PHOSPHATASE / ASPARTATE AMINOTRANSFERASE / BLOOD UREA NITROGEN / CARBON DIOXIDE / CHLORIDE / CHOLESTEROL / CREATINE PHOSPHOKINASE / CREATININE / GLUCOSE / LACTATE DEHYDROGENASE / LIPASE / PHOSPHORUS / POTASSIUM / SODIUM / TOTAL BILIRUBIN / TOTAL PROTEIN / URIC ACID: tissue Plasma
[1] = 79 mg/kg, 72 h, dose level Low, time 3 day
[2] = 79 mg/kg, 120 h, dose level Low, time 5 day
[3] = 2500 mg/kg, 72 h, dose level High, time 3 day
[4] = 2500 mg/kg, 120 h, dose level High, time 5 day

SMILES: COc1ccc2cc(CCC(C)=O)ccc2c1 [NABUMETONE]
- ABSOLUTE BASOPHIL [1]: 0 CELLS/uL
- ABSOLUTE EOSINOPHIL [1]: 0 CELLS/uL
- ABSOLUTE LYMPHOCYTE [1]: 14572 CELLS/uL
- ABSOLUTE MONOCYTE [1]: 0 CELLS/uL
- ABSOLUTE SEGMENTED NEUTROPHIL [1]: 1228 CELLS/uL
- BASOPHIL [1]: 0%
- EOSINOPHIL [1]: 0%
- ERYTHROCYTE COUNT [1]: 5.17 x10E6/uL
- HEMATOCRIT [1]: 32.13%
- HEMOGLOBIN [1]: 12.87 G/DL
- LEUKOCYTE COUNT [1]: 15.8 x10E3/uL
- LYMPHOCYTE [1]: 92.33%
- MEAN CORPUSCULAR HEMOGLOBIN [1]: 24.87 pg
- MEAN CORPUSCULAR HEMOGLOBIN CONCENTRATION [1]: 40.07 G/DL
- MEAN CORPUSCULAR VOLUME [1]: 62.1 fL
- MONOCYTE [1]: 0%
- NEUTROPHIL [1]: 7.67%
- NUCLEATED RED BLOOD CELLS [1]: 0 /100WBC
- PLATELET COUNT [1]: 1308.67 x10E3/uL
- ALANINE AMINOTRANSFERASE [1]: 72.33 u/L
- ALBUMIN [1]: 4 G/DL
- ALKALINE PHOSPHATASE [1]: 371 u/L
- ASPARTATE AMINOTRANSFERASE [1]: 79.33 u/L
- BLOOD UREA NITROGEN [1]: 15.67 mg/dL
- CARBON DIOXIDE [1]: 31 mmol/L
- CHLORIDE [1]: 103 MEQ/L
- CHOLESTEROL [1]: 83.67 mg/dL
- CREATINE PHOSPHOKINASE [1]: 226.33 u/L
- CREATININE [1]: 0.12 mg/dL
- GLUCOSE [1]: 150.67 mg/dL
- LACTATE DEHYDROGENASE [1]: 93.33 u/L
- LIPASE [1]: 10 u/L
- PHOSPHORUS [1]: 12.3 mg/dL
- POTASSIUM [1]: 6.52 MEQ/L
- SODIUM [1]: 144.77 MEQ/L
- TOTAL BILIRUBIN [1]: 0.13 mg/dL
- TOTAL PROTEIN [1]: 5.33 G/DL
- URIC ACID [1]: 1.73 mg/dL
- ABSOLUTE BASOPHIL [2]: 0 CELLS/uL
- ABSOLUTE EOSINOPHIL [2]: 33.67 CELLS/uL
- ABSOLUTE LYMPHOCYTE [2]: 9495 CELLS/uL
- ABSOLUTE MONOCYTE [2]: 148 CELLS/uL
- ABSOLUTE SEGMENTED NEUTROPHIL [2]: 1090 CELLS/uL
- BASOPHIL [2]: 0%
- EOSINOPHIL [2]: 0.33%
- ERYTHROCYTE COUNT [2]: 5.45 x10E6/uL
- HEMATOCRIT [2]: 33.1%
- HEMOGLOBIN [2]: 13.23 G/DL
- LEUKOCYTE COUNT [2]: 10.77 x10E3/uL
- LYMPHOCYTE [2]: 88.33%
- MEAN CORPUSCULAR HEMOGLOBIN [2]: 24.3 pg
- MEAN CORPUSCULAR HEMOGLOBIN CONCENTRATION [2]: 39.97 G/DL
- MEAN CORPUSCULAR VOLUME [2]: 60.83 fL
- MONOCYTE [2]: 1.33%
- NEUTROPHIL [2]: 10%
- NUCLEATED RED BLOOD CELLS [2]: 0 /100WBC
- PLATELET COUNT [2]: 1115 x10E3/uL
- ALANINE AMINOTRANSFERASE [2]: 69.33 u/L
- ALBUMIN [2]: 4.1 G/DL
- ALKALINE PHOSPHATASE [2]: 332 u/L
- ASPARTATE AMINOTRANSFERASE [2]: 95.67 u/L
- BLOOD UREA NITROGEN [2]: 12.33 mg/dL
- CARBON DIOXIDE [2]: 33 mmol/L
- CHLORIDE [2]: 103 MEQ/L
- CHOLESTEROL [2]: 61.33 mg/dL
- CREATINE PHOSPHOKINASE [2]: 321 u/L
- CREATININE [2]: 0.15 mg/dL
- GLUCOSE [2]: 173.33 mg/dL
- LACTATE DEHYDROGENASE [2]: 214.67 u/L
- LIPASE [2]: 9.67 u/L
- PHOSPHORUS [2]: 11.03 mg/dL
- POTASSIUM [2]: 5.83 MEQ/L
- SODIUM [2]: 145.17 MEQ/L
- TOTAL BILIRUBIN [2]: 0.13 mg/dL
- TOTAL PROTEIN [2]: 5.53 G/DL
- URIC ACID [2]: 1.13 mg/dL
- ABSOLUTE BASOPHIL [3]: 0 CELLS/uL
- ABSOLUTE EOSINOPHIL [3]: 0 CELLS/uL
- ABSOLUTE LYMPHOCYTE [3]: 9646 CELLS/uL
- ABSOLUTE MONOCYTE [3]: 275 CELLS/uL
- ABSOLUTE SEGMENTED NEUTROPHIL [3]: 3829 CELLS/uL
- BASOPHIL [3]: 0%
- EOSINOPHIL [3]: 0%
- ERYTHROCYTE COUNT [3]: 4.08 x10E6/uL
- HEMATOCRIT [3]: 26.8%
- HEMOGLOBIN [3]: 10.45 G/DL
- LEUKOCYTE COUNT [3]: 13.75 x10E3/uL
- LYMPHOCYTE [3]: 70%
- MEAN CORPUSCULAR HEMOGLOBIN [3]: 25.55 pg
- MEAN CORPUSCULAR HEMOGLOBIN CONCENTRATION [3]: 38.9 G/DL
- MEAN CORPUSCULAR VOLUME [3]: 65.7 fL
- MONOCYTE [3]: 2%
- NEUTROPHIL [3]: 28%
- NUCLEATED RED BLOOD CELLS [3]: 0 /100WBC
- PLATELET COUNT [3]: 873.5 x10E3/uL
- ALANINE AMINOTRANSFERASE [3]: 41 u/L
- ALBUMIN [3]: 2.7 G/DL
- ALKALINE PHOSPHATASE [3]: 286.5 u/L
- ASPARTATE AMINOTRANSFERASE [3]: 125 u/L
- BLOOD UREA NITROGEN [3]: 15.5 mg/dL
- CARBON DIOXIDE [3]: 28.5 mmol/L
- CHLORIDE [3]: 94 MEQ/L
- CHOLESTEROL [3]: 75 mg/dL
- CREATINE PHOSPHOKINASE [3]: 410 u/L
- CREATININE [3]: 0.17 mg/dL
- GLUCOSE [3]: 134 mg/dL
- LACTATE DEHYDROGENASE [3]: 144 u/L
- LIPASE [3]: 9 u/L
- PHOSPHORUS [3]: 12 mg/dL
- POTASSIUM [3]: 6.89 MEQ/L
- SODIUM [3]: 136.5 MEQ/L
- TOTAL BILIRUBIN [3]: 0.1 mg/dL
- TOTAL PROTEIN [3]: 4.95 G/DL
- URIC ACID [3]: 1.35 mg/dL
- ABSOLUTE BASOPHIL [4]: 0 CELLS/uL
- ABSOLUTE EOSINOPHIL [4]: 0 CELLS/uL
- ABSOLUTE LYMPHOCYTE [4]: 3068 CELLS/uL
- ABSOLUTE MONOCYTE [4]: 0 CELLS/uL
- ABSOLUTE SEGMENTED NEUTROPHIL [4]: 8732 CELLS/uL
- BASOPHIL [4]: 0%
- EOSINOPHIL [4]: 0%
- ERYTHROCYTE COUNT [4]: 2.58 x10E6/uL
- HEMATOCRIT [4]: 15.9%
- HEMOGLOBIN [4]: 6.6 G/DL
- LEUKOCYTE COUNT [4]: 11.8 x10E3/uL
- LYMPHOCYTE [4]: 26%
- MEAN CORPUSCULAR HEMOGLOBIN [4]: 25.6 pg
- MEAN CORPUSCULAR HEMOGLOBIN CONCENTRATION [4]: 41.5 G/DL
- MEAN CORPUSCULAR VOLUME [4]: 61.8 fL
- MONOCYTE [4]: 0%
- NEUTROPHIL [4]: 74%
- NUCLEATED RED BLOOD CELLS [4]: 0 /100WBC
- PLATELET COUNT [4]: 1731 x10E3/uL
- ALANINE AMINOTRANSFERASE [4]: 34 u/L
- ALBUMIN [4]: 2.4 G/DL
- ALKALINE PHOSPHATASE [4]: 326 u/L
- ASPARTATE AMINOTRANSFERASE [4]: 66 u/L
- BLOOD UREA NITROGEN [4]: 17 mg/dL
- CARBON DIOXIDE [4]: 28 mmol/L
- CHLORIDE [4]: 97 MEQ/L
- CHOLESTEROL [4]: 55 mg/dL
- CREATINE PHOSPHOKINASE [4]: 158 u/L
- CREATININE [4]: 0.13 mg/dL
- GLUCOSE [4]: 102 mg/dL
- LACTATE DEHYDROGENASE [4]: 80 u/L
- LIPASE [4]: 9 u/L
- PHOSPHORUS [4]: 7.6 mg/dL
- POTASSIUM [4]: 6.79 MEQ/L
- SODIUM [4]: 138 MEQ/L
- TOTAL BILIRUBIN [4]: 0.2 mg/dL
- TOTAL PROTEIN [4]: 4.7 G/DL
- URIC ACID [4]: 0.9 mg/dL
